These are literature values, as cited in patent publication US20240316044A1, “GRANULATE COMPOSITION COMPRISING NILOTINIB” (HELM AG, priority 2021, published 2024).

Structures are written as SMILES. Counter-ions that a name gives are not always drawn.

For the compound `Cc1cn(-c2cc(NC(=O)c3ccc(C)c(Nc4nccc(-c5cccnc5)n4)c3)cc(C(F)(F)F)c2)cn1` [Anhydrous Nilotinib hydrochloride, 4-methyl-N-[3-(4-methyl-1H-imidazol-1-yl)-5-(trifluoromethyl)phenyl]-3-{[4-(pyridin-3-yl)pyrimidin-2-yl]amino} benzamide], the “BCS class (low/moderate aqueous solubility and low permeability)” value is “Class IV”.
